According to ChEMBL document CHEMBL3393039, “Anthranilic acid derivatives as nuclear receptor modulators--development of novel PPAR selective and dual PPAR/FXR ligands” (Bioorg Med Chem, 2015):
In brackets after ≈: the same amount, converted by molar mass. Activity calls are given as the source filed them. No cut-off for these calls is given here.

Columns and labels:
[1] = Cytotoxic activity against human HepG2 cells assessed as LDH release at 10 uM after 48 hrs by LDH release assay (reference value: 100%)
[2] = molecular target: T1, Peroxisome proliferator-activated receptor gamma (Homo sapiens) (UniProt P37231); assay: Transactivation of Gal4-tagged PPARgamma ligand binding domain (unknown origin) expressed in COS7 cells measured after overnight incubation by luciferase reporter gene assay relative to piaglitazone; format: cell-based; details: Chlorocebus aethiops; COS-7
T1 sequence (whole entry): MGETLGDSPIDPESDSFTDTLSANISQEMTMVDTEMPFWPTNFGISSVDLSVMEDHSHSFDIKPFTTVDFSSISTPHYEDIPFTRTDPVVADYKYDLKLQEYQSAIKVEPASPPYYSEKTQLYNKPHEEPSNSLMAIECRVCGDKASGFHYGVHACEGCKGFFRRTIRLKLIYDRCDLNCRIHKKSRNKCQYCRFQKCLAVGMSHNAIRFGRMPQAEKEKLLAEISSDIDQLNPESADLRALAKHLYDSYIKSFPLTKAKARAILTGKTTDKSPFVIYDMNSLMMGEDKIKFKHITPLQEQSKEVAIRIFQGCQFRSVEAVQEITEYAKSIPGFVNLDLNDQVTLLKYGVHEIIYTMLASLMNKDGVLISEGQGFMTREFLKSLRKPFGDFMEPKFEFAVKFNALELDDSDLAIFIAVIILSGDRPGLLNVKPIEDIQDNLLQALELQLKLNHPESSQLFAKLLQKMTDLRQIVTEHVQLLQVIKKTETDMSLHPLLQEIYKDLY

[3] = Antiproliferative activity against human HepG2 cells assessed as cell viability at 10 uM after 48 hrs by WST1 assay (reference value: 100%); format: cell-based; details: read-out: Activity
[4] = Antiproliferative activity against human HepG2 cells assessed as cell viability at 50 uM after 48 hrs by WST1 assay (reference value: 100%); format: cell-based; details: read-out: Activity
[5] = molecular target: T2, Peroxisome proliferator-activated receptor gamma (Homo sapiens, UniProt P37231); assay: Transactivation of Gal4-tagged PPARgamma ligand binding domain (unknown origin) expressed in COS7 cells measured after overnight incubation by luciferase reporter gene assay; format: cell-based, COS-7
T2 sequence (P37231 whole entry): T1 sequence (whole entry)

[6] = molecular target: T3, Peroxisome proliferator-activated receptor alpha (Homo sapiens, UniProt Q07869); assay: Transactivation of Gal4-tagged PPARalpha ligand binding domain (unknown origin) expressed in COS7 cells measured after overnight incubation by luciferase reporter gene assay; format: cell-based, COS-7
T3 sequence (Q07869 whole entry): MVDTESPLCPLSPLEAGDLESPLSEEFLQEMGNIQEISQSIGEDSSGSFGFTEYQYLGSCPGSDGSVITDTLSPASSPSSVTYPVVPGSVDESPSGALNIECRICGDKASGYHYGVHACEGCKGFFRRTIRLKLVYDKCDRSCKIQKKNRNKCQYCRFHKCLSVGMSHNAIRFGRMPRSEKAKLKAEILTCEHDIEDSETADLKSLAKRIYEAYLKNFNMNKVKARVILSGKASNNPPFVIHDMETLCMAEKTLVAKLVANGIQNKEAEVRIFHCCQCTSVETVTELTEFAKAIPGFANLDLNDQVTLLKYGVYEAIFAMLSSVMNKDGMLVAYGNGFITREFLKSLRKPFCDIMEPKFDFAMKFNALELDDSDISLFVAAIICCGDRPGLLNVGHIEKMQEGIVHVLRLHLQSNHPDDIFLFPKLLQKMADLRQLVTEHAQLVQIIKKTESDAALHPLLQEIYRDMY

[7] = Cytotoxic activity against human HepG2 cells assessed as LDH release at 5 uM after 48 hrs by LDH release assay (reference value: 100%)
[8] = Aqueous solubility of the compound; format: physicochemical; details: aqueous medium (not specified further)
[9] = molecular target: T4, Peroxisome proliferator-activated receptor delta (Homo sapiens, UniProt Q03181); assay: Transactivation of Gal4-tagged PPARdelta ligand binding domain (unknown origin) expressed in COS7 cells measured after overnight incubation by luciferase reporter gene assay; format: cell-based, COS-7
T4 sequence (Q03181 whole entry): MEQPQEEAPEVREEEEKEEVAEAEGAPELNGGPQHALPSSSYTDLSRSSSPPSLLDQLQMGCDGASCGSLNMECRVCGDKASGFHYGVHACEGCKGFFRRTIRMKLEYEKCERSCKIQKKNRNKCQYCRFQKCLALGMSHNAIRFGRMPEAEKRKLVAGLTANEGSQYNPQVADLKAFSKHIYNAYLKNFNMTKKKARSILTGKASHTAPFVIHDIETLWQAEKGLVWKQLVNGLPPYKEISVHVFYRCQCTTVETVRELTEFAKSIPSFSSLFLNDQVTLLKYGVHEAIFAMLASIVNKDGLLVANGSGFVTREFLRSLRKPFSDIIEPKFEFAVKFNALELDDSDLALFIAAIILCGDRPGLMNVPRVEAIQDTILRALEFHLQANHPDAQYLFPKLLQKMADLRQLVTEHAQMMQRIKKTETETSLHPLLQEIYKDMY

[10] = Cytotoxic activity against human HepG2 cells assessed as LDH release at 30 uM after 48 hrs by LDH release assay (reference value: 100%)
Bile acid receptor = molecular target: T5, Bile acid receptor (Homo sapiens, UniProt Q96RI1); assay: Transactivation of human FXR expressed in human HeLa cells incubated for 24 hrs by luciferase reporter gene assay; format: cell-based
T5 sequence (Q96RI1 whole entry): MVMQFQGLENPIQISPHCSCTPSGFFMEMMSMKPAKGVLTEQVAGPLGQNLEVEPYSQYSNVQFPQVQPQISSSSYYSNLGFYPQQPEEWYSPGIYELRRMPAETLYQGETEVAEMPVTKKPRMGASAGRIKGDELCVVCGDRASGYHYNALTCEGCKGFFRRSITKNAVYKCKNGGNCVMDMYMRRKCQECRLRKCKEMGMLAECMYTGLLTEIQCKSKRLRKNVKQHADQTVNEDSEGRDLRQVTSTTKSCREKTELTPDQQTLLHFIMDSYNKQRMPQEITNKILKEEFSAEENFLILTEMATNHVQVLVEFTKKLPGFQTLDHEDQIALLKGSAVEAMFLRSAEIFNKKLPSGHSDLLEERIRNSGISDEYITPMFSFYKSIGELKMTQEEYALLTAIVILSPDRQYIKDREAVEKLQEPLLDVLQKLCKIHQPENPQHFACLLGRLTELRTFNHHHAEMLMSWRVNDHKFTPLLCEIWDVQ

[11] = molecular target: T6, Peroxisome proliferator-activated receptor delta (Homo sapiens) (UniProt Q03181); assay: Transactivation of Gal4-tagged PPARdelta ligand binding domain (unknown origin) expressed in COS7 cells measured after overnight incubation by luciferase reporter gene assay relative to L165,041; format: cell-based; details: Chlorocebus aethiops; COS-7
T6 sequence (whole entry): T4 sequence (Q03181 whole entry)

[12] = molecular target: T7, Bile acid receptor (Homo sapiens) (UniProt Q96RI1); assay: Transactivation of human FXR expressed in human HeLa cells incubated for 24 hrs by luciferase reporter gene assay relative to GW4064; format: cell-based
T7 sequence (whole entry): T5 sequence (Q96RI1 whole entry)

[13] = Antiproliferative activity against human HepG2 cells assessed as cell viability at 5 uM after 48 hrs by WST1 assay (reference value: 100%); format: cell-based; details: read-out: Activity
[14] = molecular target: T8, Peroxisome proliferator-activated receptor alpha (Homo sapiens) (UniProt Q07869); assay: Transactivation of Gal4-tagged PPARalpha ligand binding domain (unknown origin) expressed in COS7 cells at 30 uM measured after overnight incubation by luciferase reporter gene assay; format: cell-based; details: COS-7
T8 sequence (whole entry): T3 sequence (Q07869 whole entry)

[15] = molecular target: T6, Peroxisome proliferator-activated receptor delta (Homo sapiens); assay: Transactivation of Gal4-tagged PPARdelta ligand binding domain (unknown origin) expressed in COS7 cells at 30 uM measured after overnight incubation by luciferase reporter gene assay; format: cell-based; details: COS-7
[16] = molecular target: T7, Bile acid receptor (Homo sapiens); assay: Transactivation of human FXR expressed in human HeLa cells at 30 uM incubated for 24 hrs by luciferase reporter gene assay; format: cell-based
[17] = molecular target: T1, Peroxisome proliferator-activated receptor gamma (Homo sapiens); assay: Transactivation of Gal4-tagged PPARgamma ligand binding domain (unknown origin) expressed in COS7 cells at 10 uM measured after overnight incubation by luciferase reporter gene assay; format: cell-based; details: COS-7
[18] = molecular target: T8, Peroxisome proliferator-activated receptor alpha (Homo sapiens); assay: Transactivation of Gal4-tagged PPARalpha ligand binding domain (unknown origin) expressed in COS7 cells at 10 uM measured after overnight incubation by luciferase reporter gene assay; format: cell-based; details: COS-7
[19] = molecular target: T7, Bile acid receptor (Homo sapiens); assay: Antagonist activity against human FXR expressed in human HeLa cells incubated for 24 hrs by luciferase reporter gene assay; format: cell-based
Homo sapiens [20] = species on record: Homo sapiens; assay: Selectivity index, ratio of EC50 for Gal4-tagged PPARalpha ligand binding domain (unknown origin) to EC50 for Gal4-tagged PPARdelta ligand binding domain (unknown origin)
[21] = Metabolic stability in Sprague-Dawley rat liver microsomes assessed as parent compound remaining at 10 uM measured after 30 mins in presence of NADPH regenerating system by HPLC method (reference value: 97.6 +/- 0.8%); format: ADME; details: read-out: Stability
[22] = Metabolic stability in Sprague-Dawley rat liver microsomes assessed as parent compound remaining at 10 uM measured after 15 mins in presence of NADPH regenerating system by HPLC method (reference value: 97.6 +/- 0.8%); format: ADME; details: read-out: Stability
[23] = molecular target: PPAR delta/gamma (Homo sapiens) (UniProt P37231+Q03181); assay: Selectivity index, ratio of EC50 for Gal4-tagged PPARgamma ligand binding domain (unknown origin) to EC50 for Gal4-tagged PPARdelta ligand binding domain (unknown origin)
[24] = Metabolic stability in Sprague-Dawley rat liver microsomes assessed as parent compound remaining at 10 uM measured after 60 mins in presence of NADPH regenerating system by HPLC method (reference value: 97.6 +/- 0.8%); format: ADME; details: read-out: Stability
Homo sapiens [25] = species on record: Homo sapiens; assay: Selectivity index, ratio of EC50 for Gal4-tagged PPARdelta ligand binding domain (unknown origin) to EC50 for human FXR
Homo sapiens [26] = species on record: Homo sapiens; assay: Selectivity index, ratio of EC50 for Gal4-tagged PPARalpha ligand binding domain (unknown origin) to EC50 for human FXR
Homo sapiens [27] = species on record: Homo sapiens; assay: Selectivity index, ratio of EC50 for Gal4-tagged PPARgamma ligand binding domain (unknown origin) to EC50 for human FXR

Compound	max activation [2] [%]	EC50 [5] [µM]	EC50 [6] [µM]	solubility [8] [µM]	EC50 [9] [µM]	max activation [11] [%]	max activation [12] [%]	Activity [15]	max activation [18] [%]	LDH release (% cytotoxicity) at 48 h, 10 µM [1] [%]	viability at 48 h, 10 µM [3] [%]	viability at 48 h, 50 µM [4] [%]	LDH release (% cytotoxicity) at 48 h, 5 µM [7] [%]	LDH release (% cytotoxicity) at 48 h, 30 µM [10] [%]	viability at 48 h, 5 µM [13] [%]	other results
Cc1ccc(C(=O)O)cc1NC(=O)c1ccccc1NC(=O)c1ccc(C(C)(C)C)cc1	163	6.3	–	2.6 (≈ 1.12 µg/mL)	–	–	–	inactive	–	0.7	92.2	72	-1.3	37.3	95.7	Activity [14]: inactive; Activity [16]: inactive
COc1ccc(C(=O)Nc2ccccc2C(=O)Nc2cccc(CC(=O)O)c2)cc1	–	–	–	–	5.9	54	–	–	17.3	–	–	–	–	–	–	max activation [17]: 13.2%; Activity [16]: inactive
O=C(O)Cc1cccc(NC(=O)c2ccccc2NC(=O)c2ccc3ccccc3c2)c1	335	18	14.4	6 (≈ 2.55 µg/mL)	1.3	147	20.9	–	–	0.3	115	89.3	-2.4	23.3	99.5	Ratio EC50 (Homo sapiens [20]): 11; remaining at 0.5 h, 10 µM [21]: 82.3%; remaining at 0.25 h, 10 µM [22]: 91.4%; Ratio EC50 [23]: 13; remaining at 1 h, 10 µM [24]: 80.5%
CC(C)(C)c1ccc(C(=O)Nc2cc(Cl)ccc2C(=O)Nc2cccc(C(=O)O)c2)cc1	256	9	–	–	–	–	22	inactive	44	–	–	–	–	–	–	Ratio EC50 (Homo sapiens [25]): 100; Ratio EC50 (Homo sapiens [26]): 100; EC50 (Bile acid receptor): 0.12 µM; Ratio EC50 (Homo sapiens [27]): 75
O=C(O)CCCCCNC(=O)c1ccccc1NC(=O)c1ccc2ccccc2c1	–	–	–	–	–	–	–	inactive	38	–	–	–	–	–	–	max activation [17]: 40%

The remaining molecules from weak to strong by EC50 [5], led by results:

max activation [2] [%]	EC50 [5] [µM]	EC50 [6] [µM]	solubility [8] [µM]	EC50 [9] [µM]	max activation [11] [%]	max activation [12] [%]	Activity [15]	max activation [18] [%]	Compound	LDH release (% cytotoxicity) at 48 h, 10 µM [1] [%]	viability at 48 h, 10 µM [3] [%]	viability at 48 h, 50 µM [4] [%]	LDH release (% cytotoxicity) at 48 h, 5 µM [7] [%]	LDH release (% cytotoxicity) at 48 h, 30 µM [10] [%]	viability at 48 h, 5 µM [13] [%]	other results
132	5.4	–	–	–	–	–	inactive	18	CC(C)(C)c1ccc(C(=O)Nc2ccc(Cl)cc2C(=O)Nc2cccc(C(=O)O)c2)cc1	–	–	–	–	–	–	inhibition [19]: Active
98	5	0.21	4.9 (≈ 2.11 µg/mL)	–	–	22	inactive	–	Cc1ccc(NC(=O)c2ccccc2NC(=O)c2ccc(C(C)(C)C)cc2)cc1C(=O)O	2.2	99.6	82.5	-0.1	28.4	106	–
125	2.6	3	1.7 (≈ 0.766 µg/mL)	6.4	175	18.8	–	–	O=C(O)Cc1cccc(NC(=O)c2ccccc2NC(=O)c2ccc(-c3ccccc3)cc2)c1	-1	79.5	33.6	-4.5	72.9	96.5	EC50 (Bile acid receptor): 0.7 µM
